Key:
[1] = Comparative dissolution of hard gelatin capsules, USP apparatus type II, purified water; type: physicochemical; conditions: size 1 hard gelatin capsule, 200 mg ibuprofen, paddle 50 rpm, 900 mL purified water
Procedure: Ibuprofen powder (supplied by BASF) was similarly filled manually into size 1 hard gelatin capsules to yield 200 mg ibuprofen per capsule.
Capsules were tested using a USP dissolution apparatus type II with a paddle speed of 50 rpm and 900 mL of purified water as a dissolution medium.

[2] = Angle of repose (flowability of powder); type: physicochemical
Procedure: The dried granules were lubricated with 0.25% w/w magnesium stearate and compressed using a Piccola 10 station rotary tablet press. The lubricated granules had angle of repose 26.56° compared with ibuprofen powder (supplied by BASF) having an angle of repose 48.01°. The resultant compressed tablets had hardness 6.1 kp and thickness 4.80 mm.

With `CC(C)Cc1ccc(C(C)C(=O)O)cc1` (stereo not shown) [ibuprofen powder, ibuprofen] the “% dissolution” value ([1]; 10 min) was 2.2%, the “% dissolution” value ([1]; 20 min) was 5.9% and the “% dissolution” value ([1]; 30 min) was 9.2%. For the same molecule, the angle of repose [2] was 48.01 °.

Source: patent US7582679B2, “Compositions containing solid ibuprofen concentrates and methods of making solid ibuprofen concentrates” (Pharmaceutics International Incorporated, priority 2006, dated 2009)
